Source: paper PMC12274840 (The Journal of Biological Chemistry, 2025)
“And” between values parts separate entries of the source, which are not always exact repeats. Equal values may be shown once. Read-outs that look alike come from different tables or passages of the source.

What was measured:
BlaC WT = target: T1, BlaC WT (Mycobacterium tuberculosis, UniProt P9WKD3); assay type: biochemical
T1 construct: correspond to residue numbers 41-307 of BlaC (Uniprot entry P9WKD3-1); His tag with TEV cleavage site (N); made in house; host or cells: E. coli BL21 (DE3) pLysS
T1 sequence (P9WKD3 41-307): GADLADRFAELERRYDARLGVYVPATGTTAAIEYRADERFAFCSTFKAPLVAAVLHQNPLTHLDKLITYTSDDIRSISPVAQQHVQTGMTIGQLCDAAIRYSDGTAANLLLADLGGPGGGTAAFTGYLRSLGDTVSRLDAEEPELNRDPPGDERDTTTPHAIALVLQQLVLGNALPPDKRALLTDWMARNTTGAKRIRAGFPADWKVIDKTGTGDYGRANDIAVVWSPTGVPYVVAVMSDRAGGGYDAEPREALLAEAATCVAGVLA

[1] = test system: E. coli KA797 cells carrying pUK21 with CTX-M-14 Y105R; assay type: cell-based, Escherichia coli; conditions: in combination with 100 μg/ml carbenicillin
[2] = test system: E. coli KA797 cells carrying pUK21 with KPC-2 (Tat); assay: microbe, parasite or virus in culture; assay type: cell-based; conditions: in combination with 100 μg/ml carbenicillin
[3] = test system: E. coli KA797 cells carrying pUK21 with TEM-1 Y105G; assay type: cell-based, Escherichia coli; conditions: in combination with 100 μg/ml carbenicillin
[4] = test system: E. coli KA797 cells carrying pUK21 with TEM-1 WT (Sec); assay: microbe, parasite or virus in culture; assay type: cell-based; conditions: in combination with 100 μg/ml carbenicillin
[5] = test system: E. coli KA797 cells carrying pUK21 with BlaC I105R; assay type: cell-based, Escherichia coli; conditions: in combination with 100 μg/ml carbenicillin
[6] = test system: E. coli KA797 cells carrying pUK21 with BlaC I105G; assay type: cell-based, Escherichia coli; conditions: in combination with 100 μg/ml carbenicillin
[7] = test system: E. coli KA797 cells carrying pUK21 with CTX-M-14 WT (Tat); assay: microbe, parasite or virus in culture; assay type: cell-based; conditions: in combination with 100 μg/ml carbenicillin
[8] = test system: E. coli KA797 cells carrying BlaC position 105 library; assay type: cell-based, Escherichia coli; conditions: for Fi AVG (average fitness): average of replicates
CTX-M-14 Y105G = target: T2, CTX-M-14 Y105G (Escherichia coli, UniProt Q9L5C7, Y108G); assay: biochemical
T2 construct: 29 to 291 of CTX-M-14 (Q9L5C7); His tag with TEV cleavage site (N); made in house; host or cells: E. coli BL21 (DE3) pLysS

[9] = test system: E. coli KA797 cells carrying pUK21 with BlaC WT (Tat); assay: microbe, parasite or virus in culture; assay type: cell-based; conditions: in combination with 100 μg/ml carbenicillin
TEM-1 WT = TEM-1 WT (Escherichia coli, UniProt P62593); assay type: biochemical; set-up: 24 to 286 of TEM-1 (P62593); His tag with TEV cleavage site (N); made in house; host or cells: E. coli BL21 (DE3) pLysS; conditions: avibactam, TEM-1 WT
CTX-M-14 WT = target: T3, CTX-M-14 WT (Escherichia coli, UniProt Q9L5C7); assay: biochemical
T3 construct: 29 to 291 of CTX-M-14 (Q9L5C7); His tag with TEV cleavage site (N); made in house; host or cells: E. coli BL21 (DE3) pLysS

[10] = test system: E. coli KA797 cells carrying pUK21 with CTX-M-14 Y105G; assay type: cell-based, Escherichia coli; conditions: in combination with 100 μg/ml carbenicillin
TEM-1 Y105G = TEM-1 Y105G (Escherichia coli, UniProt P62593, Y103G); assay: In vitro inhibition of nitrocefin hydrolysis and simulation of inhibition curves, TEM-1 Y105G; assay type: biochemical; conditions: avibactam, simulation Eq 3/9
[11] = test system: E. coli KA797 cells carrying pUK21 with TEM-1 Y105R; assay type: cell-based, Escherichia coli; conditions: in combination with 100 μg/ml carbenicillin
[12] = test system: E. coli KA797 cells carrying pUK21 with NmcA (pelB/Sec); assay: microbe, parasite or virus in culture; assay type: cell-based; conditions: in combination with 25 μg/ml carbenicillin
[13] = avibactam, simulation Eq 3/9, CTX-M-14 Y105G
[14] = avibactam, simulation Eq 3/9, CTX-M-14 WT

NC(=O)[C@@H]1CC[C@@H]2CN1C(=O)N2OS(=O)(=O)O [avibactam]
k2 (BlaC WT): 6.5 and 6.5 10^−2 s^−1 | k-2 (BlaC WT): 0.1 and 0.1 10^−3 s^−1 | MIC of inhibitor [1]: 1 µg/mL | MIC of inhibitor [2]: 0.5 µg/mL | MIC of inhibitor [3]: 16 µg/mL | MIC of inhibitor [4]: 1 µg/mL | MIC of inhibitor [5]: 64 µg/mL | MIC of inhibitor [6]: 32 µg/mL | MIC of inhibitor [7]: 0.5 µg/mL | Fi AVG (average fitness) ([8]; AA 105 Ala (BlaC I105A), relative to WT Ile): 0.716 | Significance of average fitness ([8]; AA 105 Arg (BlaC I105R)): + | Fi AVG (average fitness) ([8]; AA 105 Arg (BlaC I105R), relative to WT Ile): 2.021 | Fi AVG (average fitness) ([8]; AA 105 Asn (BlaC I105N), relative to WT Ile): -0.462 | Fi AVG (average fitness) ([8]; AA 105 Asp (BlaC I105D), relative to WT Ile): 0.306 | Fi AVG (average fitness) ([8]; AA 105 Cys (BlaC I105C), relative to WT Ile): 0.512 | Significance of average fitness ([8]; AA 105 Gln (BlaC I105Q)): + | Fi AVG (average fitness) ([8]; AA 105 Gln (BlaC I105Q), relative to WT Ile): 1.438 | Fi AVG (average fitness) ([8]; AA 105 Glu (BlaC I105E), relative to WT Ile): 0.205 | Significance of average fitness ([8]; AA 105 Gly (BlaC I105G)): + | Fi AVG (average fitness) ([8]; AA 105 Gly (BlaC I105G), relative to WT Ile): 2.428 | Fi AVG (average fitness) ([8]; AA 105 His (BlaC I105H), relative to WT Ile): 0.810 | Fi AVG (average fitness) ([8]; AA 105 Ile (BlaC WT, reference)): 0.000 | Significance of average fitness ([8]; AA 105 Leu (BlaC I105L)): + | Fi AVG (average fitness) ([8]; AA 105 Leu (BlaC I105L), relative to WT Ile): 1.665 | Significance of average fitness ([8]; AA 105 Lys (BlaC I105K)): + | Fi AVG (average fitness) ([8]; AA 105 Lys (BlaC I105K), relative to WT Ile): 0.933 | Fi AVG (average fitness) ([8]; AA 105 Met (BlaC I105M), relative to WT Ile): 0.542 | Significance of average fitness ([8]; AA 105 Phe (BlaC I105F)): + | Fi AVG (average fitness) ([8]; AA 105 Phe (BlaC I105F), relative to WT Ile): 2.659 | Significance of average fitness ([8]; AA 105 Pro (BlaC I105P)): - | Fi AVG (average fitness) ([8]; AA 105 Pro (BlaC I105P), relative to WT Ile): -1.222 | Significance of average fitness ([8]; AA 105 Ser (BlaC I105S)): + | Fi AVG (average fitness) ([8]; AA 105 Ser (BlaC I105S), relative to WT Ile): 1.393 | Significance of average fitness ([8]; AA 105 Thr (BlaC I105T)): + | Fi AVG (average fitness) ([8]; AA 105 Thr (BlaC I105T), relative to WT Ile): 1.333 | Significance of average fitness ([8]; AA 105 Trp (BlaC I105W)): + | Fi AVG (average fitness) ([8]; AA 105 Trp (BlaC I105W), relative to WT Ile): 2.468 | Significance of average fitness ([8]; AA 105 Tyr (BlaC I105Y)): + | Fi AVG (average fitness) ([8]; AA 105 Tyr (BlaC I105Y), relative to WT Ile): 3.416 | Fi AVG (average fitness) ([8]; AA 105 Val (BlaC I105V), relative to WT Ile): -0.187 | WT abs Fi 1 ([8]; absolute fitness of BlaC WT (Ile 105), replicate 1): -1.354 | WT abs Fi 2 ([8]; absolute fitness of BlaC WT (Ile 105), replicate 2): -1.584 | WT abs Fi 3 ([8]; absolute fitness of BlaC WT (Ile 105), replicate 3): -0.942 | Ki (CTX-M-14 Y105G): 50 µM | k2 (CTX-M-14 Y105G; [13]): 4.6 10^−2 s^−1 | k-2 (CTX-M-14 Y105G; [13]): 0.25 10^−3 s^−1 | MIC of inhibitor [9]: 16 µg/mL | k2 (TEM-1 WT; simulation Eq 3/9): 5.7 10^−2 s^−1 | k-2 (TEM-1 WT; simulation Eq 3/9): 0.2 10^−3 s^−1 | k1 (TEM-1 WT; simulation Eq 9): 1e+06 M⁻¹ s⁻¹ | Ki (CTX-M-14 WT): 0.47 µM | k2 (CTX-M-14 WT; [14]): 6.6 10^−2 s^−1 | k-2 (CTX-M-14 WT; [14]): 0.3 10^−3 s^−1 | k1 (CTX-M-14 WT; avibactam, simulation Eq 9, CTX-M-14 WT): 1e+06 M⁻¹ s⁻¹ | MIC of inhibitor [10]: 2 µg/mL | k2 (TEM-1 Y105G): 5 10^−2 s^−1 | k-2 (TEM-1 Y105G): 0.75 10^−3 s^−1 | MIC of inhibitor [11]: 4 µg/mL | MIC of inhibitor [12]: 0.5 µg/mL
